Experimental findings from US20250230193A1, “CYCLIC COMPOUND HAVING SELECTIVE KRAS INHIBITORY EFFECT ON HRAS AND NRAS” (CHUGAI SEIYAKU KABUSHIKI KAISHA, priority 2022, published 2025) are described below.

For assay [1], the target named is GDP-bound NRAS wild-type protein (Homo sapiens, UniProt P01111). Nature of the assay: Binding to NRAS by surface plasmon resonance (SPR), Single Cycle Kinetics. Particulars: KD ratio, GDP-bound NRAS wild-type vs GDP-bound KRAS wild-type, SPR. For orientation: In SPR one partner is held on a chip, and binding of the other changes the refractive index at the surface.
Chain of GDP-bound NRAS wild-type protein (P01111 whole entry): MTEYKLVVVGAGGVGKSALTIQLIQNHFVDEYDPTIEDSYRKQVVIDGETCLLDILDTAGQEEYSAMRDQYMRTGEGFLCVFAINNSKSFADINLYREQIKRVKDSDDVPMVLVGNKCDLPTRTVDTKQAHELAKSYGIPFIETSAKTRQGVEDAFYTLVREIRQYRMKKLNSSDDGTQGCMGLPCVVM

The target of assay [2] is GDP-bound HRAS wild-type protein (Homo sapiens, UniProt P01112). Nature of the assay: Binding to HRAS by surface plasmon resonance (SPR), Single Cycle Kinetics. Particulars: KD ratio, GDP-bound HRAS wild-type vs GDP-bound KRAS wild-type, SPR.
Chain of GDP-bound HRAS wild-type protein (P01112 whole entry): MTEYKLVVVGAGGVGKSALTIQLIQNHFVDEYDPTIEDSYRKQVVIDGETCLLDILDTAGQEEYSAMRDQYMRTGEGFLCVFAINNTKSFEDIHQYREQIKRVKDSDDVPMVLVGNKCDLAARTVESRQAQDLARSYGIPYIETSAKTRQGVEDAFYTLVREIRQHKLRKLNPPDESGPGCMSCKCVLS

For `CCCOC[C@H]1C(=O)N[C@@H]([C@@H](C)CC)C(=O)N(C)CC(=O)N(C)[C@H]2C/C=C\CCN(C2=O)[C@@H](Cc2ccc(C(F)(F)F)cc2)C(=O)N(C)CC(=O)N[C@@H](CCc2ccc(C(F)(F)F)c(OC)c2)C(=O)N2C[C@H](OCC)C[C@H]2C(=O)NC2(CCC2)C(=O)N(C)[C@@H](C2CCCC2)C(=O)N(C)[C@H](C(=O)N(C)CCC)CC(=O)N1C` [PP2017], the “NRAS/KRAS (ratio of KD value for NRAS to KD value for KRAS)” value in assay [1] was “A (a compound having 10 or more and less than 20 is denoted as A)”. The “HRAS/KRAS (ratio of KD value for HRAS to KD value for KRAS)” value in assay [2] was “A (a compound having 10 or more and less than 20 is denoted as A)”.

For the compound `CCCN(C)C(=O)[C@@H]1CC(=O)N(C)[C@@H](CCOC)C(=O)N[C@@H]([C@@H](C)CC)C(=O)N(C)CC(=O)N(C)[C@H]2C/C=C\CCN(C2=O)[C@@H](Cc2ccc(C(F)(F)F)cc2)C(=O)N(C)CC(=O)N[C@@H](CCc2ccc(C(F)(F)F)c(OC)c2)C(=O)N2C[C@H](OCC)C[C@H]2C(=O)NC2(CCC2)C(=O)N(C)[C@@H](C2CCCC2)C(=O)N1C` [PP2018], in assay [1], the “NRAS/KRAS (ratio of KD value for NRAS to KD value for KRAS)” value is “A (a compound having 10 or more and less than 20 is denoted as A)”. Also, the “HRAS/KRAS (ratio of KD value for HRAS to KD value for KRAS)” value in assay [2] is “B (a compound having 3 or more and less than 10 is denoted as B)”.

Take `CCCN(C)C(=O)[C@@H]1CC(=O)N(C)[C@@H](C(C)C)C(=O)N[C@@H]([C@@H](C)CC)C(=O)N(C)CC(=O)N(C)[C@H]2C/C=C\CCN(C2=O)[C@@H](Cc2ccc(C(F)(F)F)cc2)C(=O)N(C)CC(=O)N[C@@H](CCc2ccc(C(F)(F)F)c(OC)c2)C(=O)N2C[C@H](OCC)C[C@H]2C(=O)NC2(CCC2)C(=O)N(C)[C@@H](C2CCCC2)C(=O)N1C` [PP2020]: the “NRAS/KRAS (ratio of KD value for NRAS to KD value for KRAS)” value in assay [1] was “A (a compound having 10 or more and less than 20 is denoted as A)”. Further, in assay [2], the “HRAS/KRAS (ratio of KD value for HRAS to KD value for KRAS)” value was “A (a compound having 10 or more and less than 20 is denoted as A)”.

In the case of `CCO[C@@H]1C[C@H]2C(=O)NC3(CCC3)C(=O)N(C)[C@@H](C3CCCC3)C(=O)N(C)[C@H](C(=O)N(C)CC)CC(=O)N(C)[C@@H](C3CC3)C(=O)N[C@@H]([C@@H](C)CC)C(=O)N(C)CC(=O)N(C)[C@H]3C/C=C\CCN(C3=O)[C@@H](Cc3ccc(C(F)(F)F)cc3)C(=O)N(C)CC(=O)N[C@@H](CCc3ccc(C(F)(F)F)c(OC)c3)C(=O)N2C1` [PP2021], the “NRAS/KRAS (ratio of KD value for NRAS to KD value for KRAS)” value in assay [1] was “A (a compound having 10 or more and less than 20 is denoted as A)”. For the same compound, the “HRAS/KRAS (ratio of KD value for HRAS to KD value for KRAS)” value in assay [2] is “B (a compound having 3 or more and less than 10 is denoted as B)”.

In the case of `CCO[C@@H]1C[C@H]2C(=O)NC3(CCC3)C(=O)N(C)[C@@H](C3CCCC3)C(=O)N(C)[C@H](C(=O)N(C)CC)CC(=O)N(C)[C@@H](C3CCC3)C(=O)N[C@@H]([C@@H](C)CC)C(=O)N(C)CC(=O)N(C)[C@H]3C/C=C\CCN(C3=O)[C@@H](Cc3ccc(C(F)(F)F)cc3)C(=O)N(C)CC(=O)N[C@@H](CCc3ccc(C(F)(F)F)c(OC)c3)C(=O)N2C1` [PP2022], the “NRAS/KRAS (ratio of KD value for NRAS to KD value for KRAS)” value in assay [1] was “A (a compound having 10 or more and less than 20 is denoted as A)”. Moreover, the “HRAS/KRAS (ratio of KD value for HRAS to KD value for KRAS)” value in assay [2] was “A (a compound having 10 or more and less than 20 is denoted as A)”.

For `CCCN(C)C(=O)[C@@H]1CC(=O)N(C)[C@@H](C2CCC2)C(=O)N[C@@H]([C@@H](C)CC)C(=O)N(C)CC(=O)N(C)[C@H]2C/C=C\CCN(C2=O)[C@@H](Cc2ccc(C(F)(F)F)cc2)C(=O)N(C)CC(=O)N[C@@H](CCc2ccc(C(F)(F)F)c(OC)c2)C(=O)N2C[C@H](OCC)C[C@H]2C(=O)NC2(CCC2)C(=O)N(C)[C@@H](C2CCCC2)C(=O)N1C` [PP2023], in assay [1], the “NRAS/KRAS (ratio of KD value for NRAS to KD value for KRAS)” value was “A (a compound having 10 or more and less than 20 is denoted as A)”. Also, the “HRAS/KRAS (ratio of KD value for HRAS to KD value for KRAS)” value in assay [2] was “B (a compound having 3 or more and less than 10 is denoted as B)”.

On to `CCCN(C)C(=O)[C@@H]1CC(=O)N(C)[C@@H](CC(F)F)C(=O)N[C@@H]([C@@H](C)CC)C(=O)N(C)CC(=O)N(C)[C@H]2C/C=C\CCN(C2=O)[C@@H](Cc2ccc(C(F)(F)F)cc2)C(=O)N(C)CC(=O)N[C@@H](CCc2ccc(C(F)(F)F)c(OC)c2)C(=O)N2C[C@@H](C)C[C@H]2C(=O)NC2(CCC2)C(=O)N(C)[C@@H](C2CCCC2)C(=O)N1C` [PP2024], for which the “NRAS/KRAS (ratio of KD value for NRAS to KD value for KRAS)” value in assay [1] was “A (a compound having 10 or more and less than 20 is denoted as A)”. For the same compound, in assay [2], the “HRAS/KRAS (ratio of KD value for HRAS to KD value for KRAS)” value was “B (a compound having 3 or more and less than 10 is denoted as B)”.

With `CCCN(C)C(=O)[C@@H]1CC(=O)N(C)[C@@H](COCC)C(=O)N[C@@H]([C@@H](C)CC)C(=O)N(C)CC(=O)N(C)[C@H]2C/C=C\CCN(C2=O)[C@@H](Cc2ccc(C(F)(F)F)cc2)C(=O)N(C)CC(=O)N[C@@H](CCc2ccc(C(F)(F)F)c(OC)c2)C(=O)N2C[C@@H](C)C[C@H]2C(=O)NC2(CCC2)C(=O)N(C)[C@@H](C2CCCC2)C(=O)N1C` [PP2025], in assay [1], the “NRAS/KRAS (ratio of KD value for NRAS to KD value for KRAS)” value was “A (a compound having 10 or more and less than 20 is denoted as A)”. For the same compound, in assay [2], the “HRAS/KRAS (ratio of KD value for HRAS to KD value for KRAS)” value was “B (a compound having 3 or more and less than 10 is denoted as B)”.

Regarding `CCOC[C@H]1C(=O)N[C@@H]([C@@H](C)CC)C(=O)N(C)CC(=O)N(C)[C@H]2C/C=C\CCN(C2=O)[C@@H](Cc2ccc(C(F)(F)F)cc2)C(=O)N(C)CC(=O)N[C@@H](CCc2ccc(C(F)(F)F)c(OC)c2)C(=O)N2C[C@@H](C)C[C@H]2C(=O)NC2(CCC2)C(=O)N(C)[C@@H](C2CCCC2)C(=O)N(C)[C@H](C(=O)N(C)CC)CC(=O)N1C` [PP2026], the “NRAS/KRAS (ratio of KD value for NRAS to KD value for KRAS)” value in assay [1] is “A (a compound having 10 or more and less than 20 is denoted as A)”. Besides, the “HRAS/KRAS (ratio of KD value for HRAS to KD value for KRAS)” value in assay [2] is “A (a compound having 10 or more and less than 20 is denoted as A)”.

On to `CCCOC[C@H]1C(=O)N[C@@H]([C@@H](C)CC)C(=O)N(C)CC(=O)N(C)[C@H]2C/C=C\CCN(C2=O)[C@@H](Cc2ccc(C(F)(F)F)cc2)C(=O)N(C)CC(=O)N[C@@H](CCc2ccc(C(F)(F)F)c(OC)c2)C(=O)N2C[C@@H](C)C[C@H]2C(=O)NC2(CCC2)C(=O)N(C)[C@@H](C2CCCC2)C(=O)N(C)[C@H](C(=O)N(C)CC)CC(=O)N1C` [PP2027], for which, in assay [1], the “NRAS/KRAS (ratio of KD value for NRAS to KD value for KRAS)” value is “A (a compound having 10 or more and less than 20 is denoted as A)”. Moreover, the “HRAS/KRAS (ratio of KD value for HRAS to KD value for KRAS)” value in assay [2] was “B (a compound having 3 or more and less than 10 is denoted as B)”.

Take `CCCOC[C@H]1C(=O)N[C@@H]([C@@H](C)CC)C(=O)N(C)CC(=O)N(C)[C@H]2C/C=C\CCN(C2=O)[C@@H](Cc2ccc(C(F)(F)F)cc2)C(=O)N(C)CC(=O)N[C@@H](CCc2ccc(C(F)(F)F)c(OC)c2)C(=O)N2C[C@@H](C)C[C@H]2C(=O)NC2(CCC2)C(=O)N(C)[C@@H](C2CCCC2)C(=O)N(C)[C@H](C(=O)N(C)CCC)CC(=O)N1C` [PP2028]: the “NRAS/KRAS (ratio of KD value for NRAS to KD value for KRAS)” value in assay [1] was “A (a compound having 10 or more and less than 20 is denoted as A)”. For the same compound, in assay [2], the “HRAS/KRAS (ratio of KD value for HRAS to KD value for KRAS)” value is “B (a compound having 3 or more and less than 10 is denoted as B)”.

Turning to `CCCN(C)C(=O)[C@@H]1CC(=O)N(C)[C@@H](CCOC)C(=O)N[C@@H]([C@@H](C)CC)C(=O)N(C)CC(=O)N(C)[C@H]2C/C=C\CCN(C2=O)[C@@H](Cc2ccc(C(F)(F)F)cc2)C(=O)N(C)CC(=O)N[C@@H](CCc2ccc(C(F)(F)F)c(OC)c2)C(=O)N2C[C@@H](C)C[C@H]2C(=O)NC2(CCC2)C(=O)N(C)[C@@H](C2CCCC2)C(=O)N1C` [PP2029], in assay [1], the “NRAS/KRAS (ratio of KD value for NRAS to KD value for KRAS)” value was “A (a compound having 10 or more and less than 20 is denoted as A)”. Besides, the “HRAS/KRAS (ratio of KD value for HRAS to KD value for KRAS)” value in assay [2] was “B (a compound having 3 or more and less than 10 is denoted as B)”.

Consider `CCCN(C)C(=O)[C@@H]1CC(=O)N(C)[C@@H](CC(F)F)C(=O)N[C@@H]([C@@H](C)CC)C(=O)N(C)CC(=O)N(C)[C@H]2C/C=C\CCN(C2=O)[C@@H](Cc2ccc(C(F)(F)F)cc2)C(=O)N(C)CC(=O)N[C@@H](CCc2cc(F)c(C(F)(F)F)c(F)c2)C(=O)N2C[C@H](OCC)C[C@H]2C(=O)NC2(CC(C)(C)C2)C(=O)N(C)[C@@H](C2CCCC2)C(=O)N1C` [PP2030], for which the “NRAS/KRAS (ratio of KD value for NRAS to KD value for KRAS)” value in assay [1] is “A (a compound having 10 or more and less than 20 is denoted as A)”. Moreover, the “HRAS/KRAS (ratio of KD value for HRAS to KD value for KRAS)” value in assay [2] was “A (a compound having 10 or more and less than 20 is denoted as A)”.

Regarding `CCCN(C)C(=O)[C@@H]1CC(=O)N(C)[C@@H](COCC)C(=O)N[C@@H]([C@@H](C)CC)C(=O)N(C)CC(=O)N(C)[C@H]2C/C=C\CCN(C2=O)[C@@H](Cc2ccc(C(F)(F)F)cc2)C(=O)N(C)CC(=O)N[C@@H](CCc2cc(F)c(C(F)(F)F)c(F)c2)C(=O)N2C[C@H](OCC)C[C@H]2C(=O)NC2(CC(C)(C)C2)C(=O)N(C)[C@@H](C2CCCC2)C(=O)N1C` [PP2031], the “NRAS/KRAS (ratio of KD value for NRAS to KD value for KRAS)” value in assay [1] was “B (a compound having 3 or more and less than 10 is denoted as B)”. For the same compound, the “HRAS/KRAS (ratio of KD value for HRAS to KD value for KRAS)” value in assay [2] is “B (a compound having 3 or more and less than 10 is denoted as B)”.

Regarding `CCOC[C@H]1C(=O)N[C@@H]([C@@H](C)CC)C(=O)N(C)CC(=O)N(C)[C@H]2C/C=C\CCN(C2=O)[C@@H](Cc2ccc(C(F)(F)F)cc2)C(=O)N(C)CC(=O)N[C@@H](CCc2cc(F)c(C(F)(F)F)c(F)c2)C(=O)N2C[C@H](OCC)C[C@H]2C(=O)NC2(CC(C)(C)C2)C(=O)N(C)[C@@H](C2CCCC2)C(=O)N(C)[C@H](C(=O)N(C)CC)CC(=O)N1C` [PP2032], the “NRAS/KRAS (ratio of KD value for NRAS to KD value for KRAS)” value in assay [1] was “A (a compound having 10 or more and less than 20 is denoted as A)”. For the same compound, the “HRAS/KRAS (ratio of KD value for HRAS to KD value for KRAS)” value in assay [2] is “B (a compound having 3 or more and less than 10 is denoted as B)”.
